From US9273101B2, “Functionalized biomaterials for tissue regeneration” (Nanomed3D S.R.L., priority 2011, dated 2016)
Entries after “also recorded” stand apart in the source; their conditions may differ.

Experiments:
[1] = Rheology of SAPeptide solutions and self-assembled scaffolds; assay type: physicochemical; conditions: 1% w/v, 2% w/v and 3% w/v
Method: Rheological properties of the self-assembling peptides of the invention were determined using a controlled stress TA Instruments AR-2000ex rheometer (TA Instruments). A cone-and-plate geometry (acrylic cone diameter, 20 mm; angle, 1°; truncation gap 34 μm) was used. Preliminary strain sweeps were performed for each sample to define the linear viscoelastic region, thus ensuring that moduli were independent of strain. Time sweeps, after addition of PBS (1×) were recorded at 25 C (angular frequency ω=1 Hz) and continued till G′ plateaued. Frequency sweeps, both for peptide water solutions and for self-assembled scaffolds, were performed at 25 C with the instrument in oscillatory mode at controlled strain of 1%. Final strain sweeps was performed at 1 Hz oscillatory frequency and at 25 C: onset point of failure was calculated by linear interpolation and subsequent determination of the intersection of the G′ modes within the linear region and at material failure respectively.

murine NSCs [2] = assay: Immunofluorescence of differentiated NSC progeny on SAP scaffolds, murine; assay type: cell-based; conditions: for number of neurons (βIII-Tubulin) obtained / number of oligodendrocytes (GalC/O4) obtained: 1% scaffold, compared to Cultrex positive control
Method: (§1) In vitro tests were performed as previously described (8), in order to assess whether the biomaterials (assembled hydrogels) obtained with the SAPs of the present invention influenced NSCs adhesion, survival and/or differentiation. SAPeptides (30 μl for each well at a concentration of 10 mg/ml) were assembled into 96 multiwells two hours before cell. Cells (at a concentration of 2×10^4 cells/cm^2) were seeded on the top-surface of each assembled scaffold. Initially, cells were cultured with basal medium supplemented with βFGF (10 ng/ml), added to […]. At 3 days in vitro (DIV), βFGF medium was replaced with Leukemia Inhibitory Factor (LIF, Chemicon) (20 ng/ml) and Brain Derived Neurotrophic Factor (BDNF, Peprotech) (20 ng/ml). Fresh medium was added every three days. For both viability and differentiation assays positive and negative controls consisted of Cultrex-BME® substrate (R&D systems) (1:100 dilution in basal medium) and untreated bottom well surfaces respectively. Cell viability was quantified via CellTiter 96® Aqueous Proliferation Assay (Promega) at 7 DIV as recommended in the Promega protocol. After calibrating the linear response between the cell number and absorbance values, proliferated cell populations were quantified (n=5) by using a Vmax microplate reader (Molecular Devices) at 490 nm wavelength. Values, reported as means±standard error of the mean, were blanked to their respective controls consisting of same substrates and cell culture media without cells.
(§2) Immunofluorescence tests were performed for assaying the phenotypes of the differentiated human and murine NSC progenies. In the case of KLP and Ac-KLP just murine NSC have been used. Ac-KLP and KLP scaffolds were prepared at different concentrations in order to display three different stiffness values (viz. 100, 500 and 1000 Pa). This was done to assess the influence of scaffold concentration (and consequently its stiffness) over NSC differentiation. All the other peptides were tested at 1% v/w concentration instead. The following antibodies were used: rabbit polyclonal against GFAP (1:500, DakoCytomation) for astrocytes, mouse monoclonal against βIII-Tubulin (1:500, Covance) for neurons, mouse monoclonal against GalC (1:200, Chemicon) and O4 (1:200, Chemicon) for oligodendrocyes. Secondary Abs were Goat anti Mouse Alexa 488 (1:1000, Molecular Probes), Goat anti Mouse Cy3 (1:1000, Jackson Immunoresearch), Goat anti Rabbit Cy3 (1:1000, Jackson Immunoresearch). Cell nuclei were counterstained with DAPI (Molecular Probes). Quantitative analyses were performed by counting 100-300 cells for each of 9 randomly chosen fields over a total of 3 independent experiments. Phase contrast and fluorescence images of the adhering cells were acquired via Zeiss microscopes Axioplan 2 and ApoTome System at one week after seeding.

murine NSC = assay: NSC differentiation on exposure to soluble heptapeptides (immunofluorescence); assay type: cell-based; conditions: 12 DIV, Cultrex and Laminin coated wells, peptide 0.1 mg/ml in media, vs untreated NSCs, p<0.05
Method: In vitro tests were performed as previously described (8), in order to assess whether the heptapeptides obtained of the present invention influence NSCs differentiation.
Murine cells (at a concentration of 2×10^4 cells/cm^2) were seeded in each well (96 multi-well plate) previously coated with Cultrex-BME® substrate (R&D systems) (1:100 dilution in basal medium, overnight incubation) or with Laminin (Roche) (1:5 dilution in PBS 1×, pH 7.4, overnight incubation).
Initially, cells were cultured with basal medium supplemented with βFGF (10 ng/ml), added to enhance neuronal progeny differentiation. At 3 days in vitro (DIV), βFGF medium was replaced with Leukemia Inhibitory Factor (LIF, Chemicon) (20 ng/ml) and Brain Derived Neurotrophic Factor (BDNF, Peprotech) (20 ng/ml). Fresh medium was added every three days. The chosen peptides were dissolved in all cell culture media (but not in the coatings) at a concentration of 0.1 mg/ml.
Immunofluorescence tests were performed for assaying the phenotypes of the differentiated murine NSC progenies. The following antibodies were used: rabbit polyclonal against GFAP (1:500, DakoCytomation) for astrocytes and mouse monoclonal against βIII-Tubulin (1:500, Covance) for neurons. Secondary Abs were Goat anti Mouse Alexa 488 (1:1000, Molecular Probes), Goat anti Mouse Cy3 (1:1000, Jackson Immunoresearch), Cell nuclei were counterstained with DAPI (Molecular Probes). Quantitative analyses were performed by counting 100-300 cells for each of 9 randomly chosen fields over a total of 3 independent experiments.
Values, reported as means±standard error of the mean (FIG. 1A).

murine NSCs [3] = assay: Imaging and cell proliferation assay (CellTiter 96 MTS) on assembled hydrogels, murine NSCs; assay type: cell-based; conditions: 7 DIV; for cell viability / proliferated cell population (MTS): scaffolds 10 mg/ml, vs control, P<0.005
Method: as §1

human NSCs [4] = assay: Imaging and cell proliferation assay (CellTiter 96 MTS) on assembled hydrogels, human NSCs; assay type: cell-based; conditions: 7 DIV; for cell viability / proliferated cell population (MTS): scaffolds 10 mg/ml, vs control, P<0.03
Method: as §1

human NSCs [5] = assay: Immunofluorescence of differentiated NSC progeny on SAP scaffolds, human; assay type: cell-based; conditions: 1% scaffold, compared to Cultrex positive control
Method: as §1
as §2, with “Cell nuclei were counterstained with DAPI (Molecular Probes).” left out

Substance | percentage of differentiated neurons (Beta III Tubulin staining) (murine NSC) | cell morphology, adhesion and spreading on assembled hydrogels (murine NSCs [3]) | cell viability / proliferated cell population (MTS) (murine NSCs [3]) | cell morphology, adhesion and spreading on assembled hydrogels (human NSCs [4]) | cell viability / proliferated cell population (MTS) (human NSCs [4]) | number of neurons (βIII-Tubulin) obtained (murine NSCs [2]) | number of oligodendrocytes (GalC/O4) obtained (murine NSCs [2]) | number of neurons (βIII-Tubulin) obtained (human NSCs [5]) | number of oligodendrocytes (GalC/O4) obtained (human NSCs [5]) | further results
Ac-KLPGWSGGGGLDLKLDLKLDLK-CONH2 (Ac-KLPGWSGGGGLDLKLDLKLDLK-NH2) | – | – | – | – | – | – | – | – | – | G′ and G″ values at different concentrations [1]: increased with concentration increments; differentiated neurons (βIIITubulin positive cells) in correspondence of stiffness reductions (murine NSCs [2]; scaffold stiffness 100, 500 and 1000 Pa): significant increments
NH2-KLPGWSG-CONH2 (H-KLPGWSG-NH2) [#KLP] | significant increase; also recorded: Highest increase | – | – | – | – | – | – | – | – | –
NH2-FAQRVPPGGGLDLKLDLKLDLK-CONH2 (H-FAQRVPPGGGLDLKLDLKLDLK-NH2) | – | spread and branched cells | significantly fostered cell viability; also recorded: cell population was bigger; also recorded: significantly favored | spread and branched cells | significantly fostered cell viability; also recorded: cell population was bigger; also recorded: significantly favored | significantly higher | significantly higher | significantly higher | significantly higher | –
Ac-FAQRVPPGGGLDLKLDLKLDLK-CONH2 (Ac-FAQRVPPGGGLDLKLDLKLDLK-NH2) | – | spread and branched cells | cell population was bigger | spread and branched cells | cell population was bigger | significantly higher | significantly higher | significantly higher | significantly higher | –
NH2-HAIYPRH-CONH2 (H-HAIYPRH-NH2) [#HAI] | significant increase | – | – | – | – | – | – | – | – | –
NH2-GETRAPL-CONH2 (H-GETRAPL-NH2) [#GET] | significant increase | – | – | – | – | – | – | – | – | –
